In patent US10647747B2, “Cyclosporin derivatives and uses thereof” (S&T Global Inc., priority 2010, dated 2020):
Read-outs that look alike come from different tables or passages of the source. One block for each compound: values may come before it. *1 amine or outer side, *2 acyl side, *3 side chain or, on linkers, in order; H or OH if unused. Where a SMILES comes first, the peptide text is derived from it. [ ]: non-standard residue; d: D form. X3 = CC=CCC(C)C(O)C(C(=O)[*:2])N(C)[*:1]; X5 = CSCOC(C)(C)CC(C(=O)[*:2])N(C)[*:1]; X4 = CCN(CC)CCSC(C(=O)[*:2])N(C)[*:1]; NMeL = CN[CH](CC(C)C)C(=O)O; NMeV = CN[CH](C(=O)O)C(C)C; Abu = CC[CH](N)C(=O)O

What was measured:
[1] = tested on: rat neuronal mitochondria; experiment: Mitochondrial swelling assay (inhibition of mitochondrial permeability transition, MPT); format: biochemical; conditions: compound 100 nM added 5 minutes before Ca2+; swelling induced by 100 micromolar calcium chloride; absorbance 620nm; control 100
[2] = tested on: HCV replicon in cell line ET (luc-ubi-neo/ET), Huh7 human hepatoma; experiment: HCV subgenomic replicon assay, luciferase end point; format: cell-based; conditions: Hepatitis C virus, read-out: Antiviral activity EC50
[3] = tested on: HIV-1IIIB in CEM-SS cells; experiment: Anti-HIV cytoprotection assay, acute infection model, MTS endpoint; format: cell-based; conditions: Table 17, HIV-1IIIB in CEM-SS cells, 6-day incubation, read-out: Antiviral activity EC50
Method: Anti-HIV activity of cyclosporine derivatives were evaluated by cytoprotection assay in an acute infection model using CEM-SS cells and either HIV-1IIIB or HIV-1 RF. Antiviral activity was determined as a reduction in virus-caused cytopathic effects when compounds prevent virus replication. Cytoprotection and compound cytotoxicity were evaluated using the tetrazollium dye MTS (Promega) to calculate cell viability following virus infection after 6-day incubation (Zhou G., et al., 2011, J. Med. Chem. 27, 7220-31; which is incorporated herein by reference).

[4] = Stability testing: epimerization of cyclosporin derivatives in methanol, monitored by HPLC; format: physicochemical; conditions: for Epimerization % after 168 hours: Table 11, MeOH at 50° C.-58° C.; for Epimerization %: Table 10, MeOH at 50° C.
[5] = Human immunodeficiency virus 1, 144 h

Compound: CC=CCC(C)C(O)C1C(=O)NC(CC)C(=O)N(C)C(SCCN(CC)CC)C(=O)N(C)C(CC(C)(C)OCSC)C(=O)NC(C(C)C)C(=O)N(C)C(CC(C)C)C(=O)NC(C)C(=O)NC(C)C(=O)N(C)C(CC(C)C)C(=O)N(C)C(CC(C)C)C(=O)N(C)C(C(C)C)C(=O)N1C (stereo not shown) (cyclo([X3][Abu][X4][X5]V[NMeL]AA[NMeL][NMeL][NMeV]); configuration not given here)
- Mitochondrial Swelling Relative % [1]: 52.4%

Compound: C/C=C/C[C@@H](C)[C@@H](O)[C@H]1C(=O)N[C@@H](CC)C(=O)N(C)[C@H](CSCCN2CCOCC2)C(=O)N(C)[C@@H](CC(C)(C)O)C(=O)N[C@@H](C(C)C)C(=O)N(C)[C@@H](CC(C)C)C(=O)N[C@@H](C)C(=O)N[C@H](C)C(=O)N(C)[C@@H](CC(C)C)C(=O)N(C)[C@@H](CC(C)C)C(=O)N(C)[C@@H](C(C)C)C(=O)N1C [[(S)-(2-(N-Morpholino)ethylthio)methyl-Sar]-3-[(γ-hydroxy)-N-MeLeu]-4-cyclosporin]
- EC50 ([2]; Huh-7, HCV subgenomic replicon, cell line ET (luc-ubi-neo/ET) Huh7, luciferase end point): 60 nM
- EC50 ([2]; Huh-7, Table 14, HCV replicon luciferase): 20 nM
- EC50 [3, 5]: 94.9 nM

Compound: C/C=C/C[C@@H](C)[C@@H](O)[C@H]1C(=O)N[C@@H](CC)C(=O)N(C)[C@H](CSCCN(C)C)C(=O)N(C)[C@@H](CC(C)(C)O)C(=O)N[C@@H](C(C)C)C(=O)N(C)[C@@H](CC(C)C)C(=O)N[C@@H](C)C(=O)N[C@H](C)C(=O)N(C)[C@@H](CC(C)C)C(=O)N(C)[C@@H](CC(C)C)C(=O)N(C)[C@@H](C(C)C)C(=O)N1C (single isomer, unassigned)
- EC50 [3, 5]: 118 nM

Compound: C/C=C/C[C@@H](C)[C@@H](O)[C@H]1C(=O)N[C@@H](CC)C(=O)N(C)[C@H](CSCCN(CC)CC)C(=O)N(C)[C@@H](CC(C)(C)O)C(=O)N[C@@H](C(C)C)C(=O)N(C)[C@@H](CC(C)C)C(=O)N[C@@H](C)C(=O)N[C@H](C)C(=O)N(C)[C@@H](CC(C)C)C(=O)N(C)[C@@H](CC(C)C)C(=O)N(C)[C@@H](C(C)C)C(=O)N1C
- Mitochondrial Swelling Relative % [1]: 55.7%

Compound: C/C=C/C[C@@H](C)[C@@H](O)[C@H]1C(=O)N[C@@H](CC)C(=O)N(C)[C@H](CSCCN(C)C)C(=O)N(C)[C@@H](CC(C)C)C(=O)N[C@@H](C(C)C)C(=O)N(C)[C@@H](CC(C)C)C(=O)N[C@@H](C)C(=O)N[C@H](C)C(=O)N(C)[C@@H](CC(C)C)C(=O)N(C)[C@@H](CC(C)C)C(=O)N(C)[C@@H](C(C)C)C(=O)N1C (single isomer, unassigned)
- Epimerization % after 168 hours [4]: 0%

Compound: C/C=C/C[C@@H](C)[C@@H](O)[C@H]1C(=O)N[C@@H](CC)C(=O)N(C)[C@H](CSCCCN2CCOCC2)C(=O)N(C)[C@@H](CC(C)(C)O)C(=O)N[C@@H](C(C)C)C(=O)N(C)[C@@H](CC(C)C)C(=O)N[C@@H](C)C(=O)N[C@H](C)C(=O)N(C)[C@@H](CC(C)C)C(=O)N(C)[C@@H](CC(C)C)C(=O)N(C)[C@@H](C(C)C)C(=O)N1C
- Epimerization % after 168 hours [4]: 0%

Second part, the compound after the results:

- EC50 [3]: 9 nM
Compound: Cc1cn([C@H]2C[C@H](N=[N+]=[N-])[C@@H](CO)O2)c(=O)[nH]c1=O [AZT]

- Epimerization % after 168 hours [4]: 0%
Compound: C/C=C/C[C@@H](C)[C@@H](O)[C@H]1C(=O)N[C@@H](CC)C(=O)N(C)[C@H](CSCCCN2CCCCC2)C(=O)N(C)[C@@H](CC(C)(C)O)C(=O)N[C@@H](C(C)C)C(=O)N(C)[C@@H](CC(C)C)C(=O)N[C@@H](C)C(=O)N[C@H](C)C(=O)N(C)[C@@H](CC(C)C)C(=O)N(C)[C@@H](CC(C)C)C(=O)N(C)[C@@H](C(C)C)C(=O)N1C

- Epimerization % ([4]; 29 hours): 0%
- Epimerization % ([4]; 77 hours): 0%
- Epimerization % ([4]; 125 hours): 0%
Compound: C/C=C/C[C@@H](C)[C@@H](O)[C@H]1C(=O)N[C@@H](CC)C(=O)N(C)[C@H](SCCCN2CCOCC2)C(=O)N(C)[C@@H](CC(C)(C)O)C(=O)N[C@@H](C(C)C)C(=O)N(C)[C@@H](CC(C)C)C(=O)N[C@@H](C)C(=O)N[C@H](C)C(=O)N(C)[C@@H](CC(C)C)C(=O)N(C)[C@@H](CC(C)C)C(=O)N(C)[C@@H](C(C)C)C(=O)N1C [drawing 1936]
